Assay results from PMC9295539 (Antimicrobial Agents and Chemotherapy, 2022).
Entries after “also recorded” stand apart in the source; their conditions may differ. Read-outs that look alike come from different tables or passages of the source.

How the values were obtained:
[1] = CRL-8155 cytotoxicity, resazurin-based viability assay; type: cell-based; conditions: human, CRL-8155 lymphocytic cells; read-out: CC50 against CRL-8155 cells
Method: (§1) Experimental details for the assays were described previously ([50]). […] Assays were performed as previously reported ([51]).

[2] = test system: G. lamblia WB6 (assemblage A); assay: G. lamblia WB6 cell growth inhibition assay; type: cell-based; conditions: Giardia duodenalis; assemblage A; read-out: EC50 against G. lamblia strain WB6
[3] = Mouse pharmacokinetics, oral gavage, plasma LC-MS/MS; type: in vivo; conditions: for half-life: read-out: average half-life (t1/2); for plasma level: 1 mg/kg QD
[4] = test system: metronidazole-resistant 713-M3 strain; assay: Metronidazole-resistant G. lamblia 713-M3 cell growth inhibition assay; type: cell-based; conditions: Giardia duodenalis, read-out: EC50 against G. lamblia strain 713-M3
[5] = test system: G. lamblia CBG99; conditions: mice
Method: The method relies on a stable constitutive reporter, CBG99, that correlates with total parasite load.
In vitro reconfirmation and expanded tests against EGFR-TKIs using the G. lamblia CBG99 strain were performed as previously described ([11]). […] The PK studies were performed in groups of 3 mice per compound. […] All animal experiments were approved by the Institutional Animal Care and Use Committees at the University of Washington.

[6] = set-up: method as in doi:10.1016/j.jtho.2016.11.1668; conditions: adults; >150 mg daily oral doses over 7 days; cited from earlier work
[7] = HEK293T cytotoxicity counterscreen, luminescent ATP viability assay; conditions: human, HEK293T cells
Method: (§2) Compounds were screened at 5 μM with metronidazole (40 μM) as an inhibitor control and dimethyl sulfoxide (DMSO) as a neutral control. […] These primary hits were immediately assayed for reconfirmation and mammalian cytotoxicity against HEK293T cells in an 8-point dose-response format.
as §1
(§3) Relative luminescence unit (RLU) values were analyzed in Genedata Screener (v13.0-Standard). RLU values were normalized to neutral controls minus inhibitors (DMSO-treated wells minus metronidazole-treated wells). For single-point primary assay plates, an additional run-wise median correction was applied to reduce screen artifacts, whereas no corrections were applied to triplicate dose-response plates. For the mammalian cytotoxicity assays, RLU values were uploaded into Genedata Screener, and the data were normalized to those for DMSO-treated wells minus puromycin-treated wells.

[8] = HepG2 cytotoxicity, resazurin-based viability assay; type: cell-based; conditions: human, HepG2 cells; read-out: CC50 against HepG2 cells
Method: as §1

[9] = Allometric scaling of efficacious mouse doses to human-equivalent dose; conditions: 150 mg human dose (2.6 to 1.9 mg/kg) versus predicted human efficacious dose
Method: Its chemical synthesis and safety profiles and a partial analysis of its pharmacokinetic properties have been described previously ([18], [43]). […] Given that the average adult weight worldwide ranges from 57.7 kg in Asia to 80.7 kg in North America ([46]), a 150 mg dose equates to 2.6 to 1.9 mg/kg. […]. This leaves a possible safety window of 4.6 to 13 times the efficacious dose, depending on the dose needed and the weight of the adult patient. Since the equivalent human efficacious dose (based on the murine efficacy data) is below the clinical trial threshold and the drug may not necessitate more than 7 daily doses, it could be speculated that all previously obtained good laboratory practices (GLP) toxicological data associated with the Phase I clinical trials remain relevant and may not need to be repeated. […] Reduced cost of development should have a direct impact on the cost of goods for the target population. This is certainly true for G. lamblia.

[10] = test system: Giardia lamblia GS clone H7; assay: G. lamblia GS clone H7 trophozoite growth, ATP-based bioluminescence assay (BacTiter-Glo), 1,536-well; type: cell-based; conditions: Giardia duodenalis
Method: as §2
The primary screen was conducted at 5 μM. […] All source plates were 384-well acoustic, transfer-compatible plates with compounds prediluted in DMSO at either 2 mM or 10 mM. […] Primary screening was done with a single replicate, whereas dose-response testing was carried out in triplicate.
To prevent attachment to the bottle and tubing of the dispenser cassette, the bottle containing the culture was kept on ice throughout the dispensing process. […] The bags were heat sealed and the anaerobic generator was activated according to the manufacturer’s instructions. […] Luminescence was read on a ViewLux uHTS microplate imager (PerkinElmer) with medium-sensitivity luminescence at 30 s of exposure.
as §3

[11] = Clinical evaluation of overall health of mice in PK and efficacy studies; conditions: all mice used for in vivo PK and efficacy studies
[12] = mouse, single oral dose 5 mg/kg
[13] = mouse, single oral dose 20 mg/kg
[14] = mouse, single oral dose 50 mg/kg

C=CC(=O)N[C@@H]1CN(c2nc(Nc3cn(C)nc3OC)c3ncn(C)c3n2)C[C@H]1F [Mavelertinib, N-((3R,4R)-4-fluoro-1–(6-((3-methoxy-1-methyl-1H-pyrazol-4-yl)amino)-9-methyl-9H-purin-2-yl)pyrrolidine-3-yl)acrylamide] gave a CC50 [1] greater than 80000 nM, an EC50 [2] of 270 ± 170 nM and a half-life ([3]; in vivo, mouse, single oral dose 5 mg/kg) of 3.99 h. The plasma trough levels ([3]; infected mice, all treatment groups, days 6 and 7 postinfection (24 h and 48 h after the first dose)) was “below the limit of quantitation”, the plasma level ([3]; mouse, 0.5 h postdose, one mouse) was “barely detectable” and the plasma level ([3]; mouse, all time points after 0.5 h) was “below the limit of detection”. The plasma level ([3]; mouse, all time points sampled (Fig. 4 legend)) was “barely detectable”, the “time at which Cmax was observed (Tmax)” value ([3]; mouse, oral, in all cases (all doses)) was 0.5 h and the “plasma concentration at 24 h postdose” value ([3]; mouse, single dose, all dosage groups) was “cleared from plasma; also recorded: below the detection limit”. For the same molecule, the “area under the curve (AUC)” value [3, 12] was 89 µmol·min/L, the clearance [3, 12] was 0.015 L/min and the “area under the curve (AUC)” value [3, 13] was 300 µmol·min/L. The clearance [3, 13] was 0.004 L/min, the “area under the curve (AUC)” value [3, 14] was 812 µmol·min/L and the clearance [3, 14] was 0.0016 L/min. For the same molecule, the Cmax ([3]; plasma, mouse, single oral dose 5 mg/kg, read-out: maximum plasma concentration (Cmax)) was 0.63 µM, the half-life ([3]; plasma, mouse, single oral dose 20 mg/kg) was 2.91 h and the Cmax ([3]; plasma, mouse, single oral dose 20 mg/kg, read-out: maximum plasma concentration (Cmax)) was 3.5 µM. It also gave a half-life ([3]; plasma, mouse, single oral dose 50 mg/kg) of 2.09 h, a Cmax ([3]; plasma, mouse, single oral dose 50 mg/kg, read-out: average maximum plasma concentration (Cmax)) of 9.3 µM and an EC50 [4] of 70 ± 20 nM. The “clearance of infection (luminescence signal)” value ([5]; 2.5 mg/kg QD for 2 days) was “one of four mice remained infected”, the “clearance of infection (luminescence signal)” value ([5]; 5 mg/kg QD for 2 days, 5 mg/kg) was “cleared the infection below the background signal” and the “clearance of infection (luminescence signal)” value ([5]; 5 mg/kg QD for 2 days, listed as mavelertinib, 5 mg/kg) was “absence of luminescence signal”. For the same molecule, the “clearance of infection (luminescence signal)” value ([5]; 20 mg/kg QD for 2 days, 20 mg/kg) was “cleared the infection below the background signal”, the “clearance of infection (luminescence signal)” value ([5]; 20 mg/kg QD for 2 days, listed as mavelertinib, 20 mg/kg) was “absence of luminescence signal” and the “clearance of infection (luminescence signal)” value ([5]; 50 mg/kg QD for 1 day, dose-response experiment, 50 mg/kg) was “cleared the infection below the background signal”. For the same molecule, the “clearance of infection (luminescence signal)” value ([5]; 50 mg/kg QD for 1 day, dose-response experiment, listed as mavelertinib, 50 mg/kg) was “absence of luminescence signal”, the clearance of infection ([5]; 50 mg/kg QD for 3 days, data not shown) was “appeared to clear the infection” and the clearance of infection ([5]; 50 mg/kg QD, 1- and 2-day dosing, remained clear a week after dosing) was “all treated mice were cleared of infection”. The “parasite rebound after treatment” value ([5]; about 1 week after the last therapeutic dose) was “parasites did not rebound”, the “most common adverse events” value [6] was “diarrhea and skin toxicities” and the CC50 at 72 h [7] was greater than 25000 nM. The CC50 [8] was greater than 80000 nM, the possible safety window [9] was 4.6 to 13 times the efficacious dose and the EC50 ([10]; 48 h, 8-point dose response, triplicate, read-out: 48-h Giardia GS clone H7 EC50) was 2340 ± 80 nM. For the same molecule, the EC50 ([10]; Table 2, assemblage B, read-out: EC50 against G. lamblia strain GS clone 7) was 2340 ± 80 nM and the observable toxicity [11] was “no observable mavelertinib-induced toxicology potentials”.
